From paper PMC5503984, “Characterisation of preproendothelin-1 derived peptides identifies Endothelin-Like Domain Peptide as a modulator of Endothelin-1” (Scientific Reports, 2017)

Experiments:
[1] = Clearance of proET-1 peptides after i.v. bolus in anaesthetised rats; format: in vivo, rat
Procedure: To examine whether circulating half-lives influenced plasma levels of proET-1 peptides clearance rates were investigated in anaesthetised rats. […] Based on a circulating blood volume of 7.2 ± 0.3 ml per 100 g body weight, a mean weight of 345 ± 6 g and hematocrit of 40–60%, the hypothetical maximum plasma concentrations were 23–35 pmol/ml. However, the levels of NT-proET-1, ELDP and CT-proET-1 30 s after injection were 0.29 ± 0.02, 3.65 ± 0.23, and 11.74 ± 0.64 pmol/ml, respectively. Relative to estimates for dilution in circulating blood, these values represent ≈1%, 10–16%, and 34–51% of administered peptide for NT-proET-1, ELDP and CT-proET-1. Moreover, NT-proET-1 was almost completely cleared from the circulation in <5 min (estimated initial t½ < 20 s).
Figure 5 Comparison of clearance rates of NT-proET-1, ELDP and CT-proET-1 in anaesthetised rats. A bolus dose containing 1 nmol/kg of each proET-1 peptide as a combined solution prepared in 0.9% saline/0.1% BSA was administered i.v. and heparinised arterial blood samples (0.5 ml) were collected at 0.5, 1, 2, 5, 10, 20 and 40 min after administration of proET-1 peptides. NT-proET-1 (mauve circles), ELDP (red circles) and CT-proET-1 (blue circles) were measured by magnetic bead-based multiplex assays using Luminex methodology (values are mean ± SD, except where SD is less than the symbol size).
A multiplexed immunoassay system was used for simultaneous measurement of NT-proET-1, ELDP and CT-proET-1 in small volumes of rat plasma. Capture antibodies were conjugated to magnetic beads (region 45 – NT-proET-1, region 36 – ELDP, and region 27 – CT-proET-1) following standard protocols (Luminex Corporation). For assay capture antibody-coated magnetic beads were diluted as a premixed combination (10 µl/well) and incubated overnight at 4 °C on an orbital plate mixer with plasma (15 µl) and assay buffer (135 µl). For detection, beads were washed using a ring magnet plate washer before adding 25 µl of combined biotinylated detection antibodies and incubating for 2 h at room temperature on an orbital plate mixer.
(§1) All experiments were conducted according to the Animals (Scientific Procedures) Act 1986, UK, and approved by the UK Home Office. Clearance rates of proET-1 peptides and blood pressure effects of ELDP were determined in male Wistar rats (Charles River) anaesthetised with sodium thiopentone (120 mg/kg i.p.). Peptides were administered i.v. via a polyethylene catheter in the left femoral vein. Blood samples (0.5 ml) were collected from a catheter in the left carotid artery into chilled 1.5 ml microcentrifuge tubes containing 50 U/5 µl of heparin. Samples were centrifuged at 12,000 rpm for 2 min at 4 °C. Plasma (50 µl aliquots) samples were stored at −80 °C for subsequent analyses. Blood pressure and heart rate were recorded from the left carotid artery via a polyethylene catheter using Labchart 7.1 (AD Instruments Ltd).

anaesthetised rats = test: Mean arterial blood pressure in anaesthetised rats; format: in vivo, rat
Procedure: Figure 7 Cardiovascular effects of ELDP. […] (B) vasoconstrictor response to ET-1 (1 × 10^−9 M) alone (n = 8) or after pre-incubation with ELDP[162-amide] (10 × 10^−9 M, n = 10); P < 0.002; Student’s t-test. (C) Change in mean arterial blood pressure in anaesthetised rats following ET-1 (0.3 nmol/kg, i.v.) alone (white circles, n = 6) or 15 min after ELDP (3 nmol/kg i.v.) (red circles, n = 6). […] Results are mean ± s.e.m.
as §1

orphan GPCRs = test: PathHunter Orphan GPCR biosensor panel (ß-arrestin binding, ß-galactosidase complementation); format: cell-based; details: 0.1 µM ELDP, 90 min at room temperature, duplicate, 5000 cells per well; chemiluminescence; no response above three standard deviations of control
Description: An important component of ET-1-induced vasoconstriction is Ca^2+ influx through voltage-gated L-type Ca^2+ channels, [67]. Modulation of ET-1 responses by ELDP therefore likely involves facilitation of Ca^2+ influx. Responses to norepinephrine and serotonin are also augmented by ET-1, and this has been attributed to increased Ca^2+ influx[68]–[70]. To investigate whether ELDP mediates its effects via a distinct G-protein coupled receptor (GPCR), whose ligand pairing had yet to be assigned, ELDP was evaluated against a panel of cell-expressed orphan GPCRs using a detection system based on ß-arrestin binding (Supplementary Figure S3). […]
arrestin and to the GPCR complementing each other to reconstitute ß-galactosidase activity, which is then measured by chemiluminescence ß-galactosidase assay as an index of receptor binding (1,2).
Orphan GPCR screening for ELDP was undertaken by DiscoverRx Corporation, Fremont, CA 94538, USA. […] At the end of the incubation period chemiluminescent substrate was add, and incubated for 60 min before measurement of relative luminescence (RLU) using a PerkinElmer […]
Data Analysis: Percentage activity was calculated for each test well relative to the mean RLU of the corresponding vehicle-treated GPCR. Results are expressed as mean control (%) ± coefficient of […]

[2] = rat, 1 nmol/kg i.v. bolus, plasma sampled 0.5–40 min, two-phase clearance

- plasma level 30 s after injection ([1]; anaesthetised male Wistar rats, bolus 1 nmol/kg i.v. of each peptide as a combined solution in 0.9% saline/0.1% BSA, arterial plasma, Luminex multiplex immunoassay, mean ± SD): 3.65 ± 0.23 nM
- estimated t½, phase 1 [1, 2]: 0.5 min
- estimated t½, phase 2 [1, 2]: 5.7 min
- plasma level at 30 s as % of administered peptide, relative to estimates for dilution in circulating blood ([1]; rat, 1 nmol/kg i.v., hypothetical maximum plasma concentration 23–35 pmol/ml): 10–16%
Sequence: ALENLLPTKATDRENRCQCASQKDKKCWNFCQAGKELRAEDIMEKDWNNHKKGKDCSKLGKKCIYQQLVRGRKI (disulfide (positions not given here)) [ELDP]
- effect on blood pressure, peptide alone (anaesthetised rats; 3 nmol/kg i.v., anaesthetised rats): no effect
- magnitude of the initial pressor response to ET-1 (anaesthetised rats; ET-1 0.3 nmol/kg i.v. given 15 min after ELDP 3 nmol/kg i.v., n = 6 per group): without changing
- duration of the pressor response to ET-1 (anaesthetised rats; ET-1 0.3 nmol/kg i.v. given 15 min after ELDP 3 nmol/kg i.v., n = 6 per group, P < 0.02): significantly increased
- receptor – ligand pairing in orphan GPCR screen (orphan GPCRs): failed to identify an ELDP receptor – ligand pair
